Measured values as given in US11401255B2, “Small molecule activators of Parkin enzyme function” (Mayo Foundation for Medical Education and Research, priority 2016, dated 2022).

Biological target: Parkin (Homo sapiens (Human), UniProt O60260)
Assay: Thermal shift (protein melting) assay
Assay type: binding
Conditions: 500 nM compound, 50 ng purified Parkin, SYPRO orange
Method: FIGS. 15A-15H show Parkin activation in primary fibroblasts, neuronal cells and in vitro. Positive control (PC) cells were treated with DMSO and 10 μM of CCCP. Negative control (NC) cells were treated with 3.5 μM CCCP, some cells were left untreated (−). […] Vinculin was used as loading control. […] FIG. 15C: Human fibroblasts were directly converted to neurons and treated as in FIG. 15B. […] Beta III tubulin confirmed successful conversion of fibroblasts to iNeurons. FIG. 15D: Rat PC12 cells were treated as in FIG. 15A. Western blots show enhanced ubiquitylation of MFN2 and TOM70, and robust pSer65-Ub induction similar to PC, but not NC cells. FIG. 15E: In vitro E2 discharge assay. Recombinant Parkin was pre-incubated with compound 4 or DMSO as control and was mixed to Ub-loaded UbcH7. […] Control reactions were performed without PINK1 or Parkin. FIG. 15F: In vitro assay with isolated mitochondria from untreated or CCCP-treated HeLa cells lacking Parkin. […]
To validate direct binding of activating compounds to Parkin as predicted from the in silico approach, a thermofluor shift assay was used. Recombinant purified Parkin was mixed together with compound 4 or DMSO as a control and the melting temperature was monitored using SYPRO Orange dye.
The thermal shift assay was performed as follows. […] Data was exported and analyzed using the Protein Melting Analysis tool (Roche Applied Science).

Sequence of Parkin (O60260 whole entry): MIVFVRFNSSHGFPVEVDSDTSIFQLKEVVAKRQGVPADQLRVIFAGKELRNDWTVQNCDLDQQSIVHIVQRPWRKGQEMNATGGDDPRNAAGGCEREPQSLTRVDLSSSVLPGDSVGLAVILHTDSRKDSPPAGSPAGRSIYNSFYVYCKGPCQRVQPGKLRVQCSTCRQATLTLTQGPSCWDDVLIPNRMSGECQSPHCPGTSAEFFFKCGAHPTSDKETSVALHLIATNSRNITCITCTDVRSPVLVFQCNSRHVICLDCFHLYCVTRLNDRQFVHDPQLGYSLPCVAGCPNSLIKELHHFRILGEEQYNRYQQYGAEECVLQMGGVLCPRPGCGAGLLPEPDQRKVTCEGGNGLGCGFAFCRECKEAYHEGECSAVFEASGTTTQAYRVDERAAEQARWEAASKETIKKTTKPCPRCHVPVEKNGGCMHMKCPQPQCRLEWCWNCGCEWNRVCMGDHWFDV

O=C(Cn1ccnc1-c1ccccn1)Nc1ccc(-c2ccccc2)cc1 [Compound 4]
Parkin melting temperature shift: 3 °C
